Reference: patent US20030065039A1, “Biologically active 1,3-bis-aromatic-prop-2-en-1-ones, 1,3-bis-aromatic-propan-1-ones, and 1,3-bis-aromatic-prop-2-yn-1-ones” (Statens Serum Institute, priority 1997, published 2003)
≈ marks a conversion by molar mass, not a printed value. Like-named read-outs stand apart in the source and are kept apart here.

Legend:
Assay type in all cases: cell-based
Helicobacter pylori = assay: Helicobacter species Assay (agar plate, MIC); conditions: for MIC: 20 strains of H. pylori, agar plate, 72 hours; for No. strains inhibited/No. strains tested: at the MIC of the same line
Procedure: (§1) 20 strains of Helicobacter pylori were used in an agar plate assay. The compounds were incorporated in the agar plates at different concentrations as described in the examples and were then inoculated with different strains of Helicobacter pylori followed by incubation in a microaerophilic atmosphere at 37° C. for 72 hours. The number of colony-forming units (CFU) were counted after the incubation period. The MIC values were determined as the minimal concentration required to inhibit growth of the bacteria.
(§2) Stock solutions were made at a concentration of 1 mg/ml by dissolving 1 mg of each compound in 100 μl DMSO (dimethylsulfoxide) followed by addition of 900 μl of heat-inactivated fetal claf serum (HFCS). These stock solutions were diluted with HFCS to make solutions having the following concentrations: 320 μg/ml, 160 μg/ml, 80 μg/ml, 40 μg/ml and 20 μg/ml. Dilution rows were made with 3 ml aliquots in vials containing the compounds in the following final test concentrations: 16 μg/ml, 8 μg/ml, 4 μg/ml, 2 μg/ml and 1 μg/ml. As control was used DMSO-HFCS containing an amount of DMSO equal to the amount of test compound in the solution with 320 μg/ml compound.
as §1, with “Bacteria: 20” for “20”, “concentrations” for “concentrations as described in the examples”, “and then they” for “and”, “were” for “were then”, “incubation at” for “incubation in a”, “C. in” for “C. for”
as §2, with “concentrations: 2560 μg/ml, 1280 μg/ml, 640 μg/ml,” for “concentrations:”, “160 µg/ml and” for “160 μg/ml,”, “80” for “80 μg/ml, 40 μg/ml and 20”, “concentrations: 128 μg/ml, 64 μg/ml, 32 μg/ml, 12” for “concentrations: 16”, “8” for “8 μg/ml, 4 μg/ml, 2”, “and 4” for “and 1”
Bacteria: 20 strains of Helicobacter pylori were used in an agar plate assay. The same method as described above under Experiment A was employed and MIC values were determined.

Plasmodium falciparum = Plasmodium falciparum Assay; conditions: 3-H-hypoxanthine incorporation, 48 hours, read-out: Plasmodium IC50 ± SD
Method in brief: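 Parasitized erythrocytes (~1% parasitemia, 5×10^8/ml) cultured 48 h in RPMI with test compound, with 3H-hypoxanthine added for the last 24 h. Growth inhibition read as 3H-hypoxanthine incorporation into parasite DNA by liquid scintillation; uninfected and untreated infected cultures run in parallel.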

TNF-α = assay: Extracellular TNF-α of human mononuclear cells (supernatant); conditions: for inhibition at 3.125 µg/mL: compound 3.125 μg/ml; for inhibition at 6.25 µg/mL: compound 6.25 μg/ml; for inhibition at 12.5 µg/mL: compound 12.5 μg/ml
Procedure: Incubation condition: Cells and mitogen added at the same time and the compound solution added immediately after in polypropylene tubes and incubated at 37° C. in CO2 incubator overnight. The following day the cells and the supernatant were harvested for TNF-α determination. Incubation condition: Cells and mitogen added at the same time and the compound solution added immediately after in polypropylene tubes and incubated at 37° C. in CO2 incubator overnight. The following day the cells and the supernatant were harvested for TNF-α determination.

[1] = Helicobacter pylori, read-out: MIC

| Compound | growth of the strains of H. pylori (FIGS. 1 and 2) (Helicobacter pylori) | strains that gave a MIC value equal to or less than 16 μg/ml (Helicobacter pylori; 20 strains) | MIC (Helicobacter pylori) [µg/mL] | No. strains inhibited/No. strains tested (Helicobacter pylori) | IC50 (Plasmodium falciparum) [µM] | MIC (Helicobacter pylori; [1]) [µg/mL] | inhibition at 3.125 µg/mL (TNF-α; 1b Experiment 2, LPS 1 μg/ml) [%] | inhibition at 6.25 µg/mL (TNF-α; 1b Experiment 2, LPS 1 μg/ml) [%] | inhibition at 12.5 µg/mL (TNF-α; 1b Experiment 2, LPS 1 μg/ml) [%] | inhibition at 3.125 µg/mL (TNF-α; 1b Experiment 3, LPS 1 μg/ml) [%] | inhibition at 6.25 µg/mL (TNF-α; 1b Experiment 3, LPS 1 μg/ml) [%] | inhibition at 12.5 µg/mL (TNF-α; 1b Experiment 3, LPS 1 μg/ml) [%] | inhibition at 3.125 µg/mL (TNF-α; 1b Experiment 4, LPS 1 μg/ml) [%] | inhibition at 6.25 µg/mL (TNF-α; 1b Experiment 4, LPS 1 μg/ml) [%] | inhibition at 12.5 µg/mL (TNF-α; 1b Experiment 4, LPS 1 μg/ml) [%] | IC50 (Plasmodium falciparum; Plasmodium falciparum) [µM] | strains of Helicobacter pylori inhibited (Helicobacter pylori; at a concentration of 16 μg/ml, 20 strains) |
| --- | --- | --- | --- | --- | --- | --- | --- | --- | --- | --- | --- | --- | --- | --- | --- | --- | --- |
| C=CC(C)(C)c1cc(/C=C/C(=O)c2ccc(O)cc2)c(OC)cc1O [Licochalcone A] | inhibited the growth of all the strains | 20 out of 20 | 16 (≈ 47.3 µM) | 20/20 | 5.6 | – | – | – | – | – | – | – | – | – | – | – | – |
| COc1cc(/C=C/C(=O)c2ccc(C3CCCCC3)cc2)cc(OC)c1 [PH104, 3,5-dimethoxy-4′-cyclohexylchalcone] | inhibited the growth of all the strains | – | – | 15/20 | – | 64 (≈ 183 µM) | 82 | 90 | 93 | 54 | 70 | 76 | 0 | 78 | 86 | 15 | – |
| COc1cc(/C=C/C(=O)c2ccc([N+](=O)[O-])cc2)cc(OC)c1 [PH105, 4′-nitro-3,5-dimethoxychalcone] | – | – | – | 12/20 | – | 16 (≈ 51.1 µM) | – | – | – | – | – | – | – | – | – | – | 12 out of 20 |
| COc1cc(/C=C/C(=O)c2ccccc2F)cc(OC)c1 [PH135, 2′-fluoro-3,5-dimethoxychalcone] | inhibited the growth of all the strains | – | – | 20/20 | – | 32 (≈ 112 µM) | 96 | 94 | 94 | 93 | 92 | 94 | 99 | 99 | 98 | 8.7 | – |
| COc1cc(/C=C/C(=O)c2cccc(F)c2)cc(OC)c1 [PH136, 3′-fluoro-3,5-dimethoxychalcone] | inhibited the growth of all the strains | – | – | 15/20 | – | 32 (≈ 112 µM) | – | – | – | – | – | – | – | – | – | 8.1 | – |
